Source: ChEMBL document CHEMBL3045642, “Synthesis of biologically active drimanes and homodrimanes from ()-sclareol” (Tetrahedron, 1995)
≈ marks a conversion by molar mass, not a printed value.

Tests used:
[1] = system: Spodoptera littoralis; test: Antifeedant activity against Spodoptera littoralis at 10 ppm; type: functional
[2] = system: Spodoptera littoralis; test: Antifeedant activity against Spodoptera littoralis at 100 ppm; type: functional
[3] = system: Enterococcus faecalis; test: Antibacterial activity against Enterococcus faecalis OGIX after 24 hr; type: functional
[4] = system: HT-29; test: Cytotoxicity against Homo sapiens (human) HT-29 cells; type: functional, cell-based
[5] = system: Saccharomyces cerevisiae; test: Antifungal activity against Saccharomyces cerevisiae S3 after 48 hr; type: functional; conditions: S3, 48 h
[6] = system: P388; test: Cytotoxicity against […] cells; type: functional, cell-based; conditions: Mus musculus
[7] = system: Pseudomonas aeruginosa; test: Antibacterial activity against Pseudomonas aeruginosa after 24 hr; type: functional
[8] = system: Candida albicans; test: Antifungal activity against Candida albicans CECT 1394 after 48 hr; type: functional; conditions: CECT 1394, 48 h
[9] = system: SK-MEL-28; test: Cytotoxicity against Homo sapiens (human) SK-MEL-28 cells; type: functional, cell-based
[10] = system: Proteus; test: Antibacterial activity against Proteus after 24 hr; type: functional
[11] = system: Salmonella typhimurium; test: Antibacterial activity against Salmonella enterica subsp. enterica serovar Typhimurium after 24 hr; type: functional
[12] = system: Spodoptera littoralis; test: Antifeedant activity against Spodoptera littoralis; type: functional, organism-based
[13] = system: Staphylococcus aureus; test: Antibacterial activity against Staphylococcus aureus ATCC 8 after 24 hr; type: functional; conditions: ATCC 8, 24 h
[14] = system: A549; test: Cytotoxicity against Homo sapiens (human) A549 cells; type: functional, cell-based
[15] = system: Cryptococcus neoformans; test: Antifungal activity against Cryptococcus neoformans CECT 1075 after 48 hr; type: functional; conditions: CECT 1075, 48 h
[16] = system: Bacillus subtilis; test: Antibacterial activity against Bacillus subtilis CECT 397 after 24 hr; type: functional; conditions: CECT 397, 24 h

| MIC [3] | MIC [5] | MIC [7] | MIC [8] | MIC [10] | MIC [11] | MIC [13] | MIC [15] | MIC [16] | Compound | AFI [1] | AFI [2] | IC50 [4] | IC50 [6] | IC50 [9] | Activity [12] | IC50 [14] |
| --- | --- | --- | --- | --- | --- | --- | --- | --- | --- | --- | --- | --- | --- | --- | --- | --- |
| – | – | – | – | – | – | – | – | – | C=C1C(=O)C[C@H]2C(C)(C)CCC[C@]2(C)[C@H]1C=O | 40.2% | 18.5% | – | – | – | – | – |
| > 100 µg/mL | 100 µg/mL (≈ 403 µM) | 100 µg/mL (≈ 403 µM) | > 100 µg/mL | > 100 µg/mL | > 100 µg/mL | 100 µg/mL (≈ 403 µM) | > 100 µg/mL | 100 µg/mL (≈ 403 µM) | CC1(C)CCC[C@]2(C)[C@@H](CC=O)C(C=O)=CC[C@@H]12 | -17.9% | 51.7% | 5 µg/mL (≈ 20.1 µM) | 2.5 µg/mL (≈ 10.1 µM) | 5 µg/mL (≈ 20.1 µM) | Dose-dependent effect | 2.5 µg/mL (≈ 10.1 µM) |
| > 100 µg/mL | > 100 µg/mL | 100 µg/mL (≈ 403 µM) | > 100 µg/mL | > 100 µg/mL | > 100 µg/mL | > 100 µg/mL | > 100 µg/mL | > 100 µg/mL | C=C1C(=O)C[C@H]2C(C)(C)CCC[C@]2(C)[C@H]1CC=O | -10% | 43.7% | 2.5 µg/mL (≈ 10.1 µM) | 1.2 µg/mL (≈ 4.83 µM) | 2.5 µg/mL (≈ 10.1 µM) | Dose-dependent effect | 1.2 µg/mL (≈ 4.83 µM) |
| > 100 µg/mL | 100 µg/mL (≈ 427 µM) | > 100 µg/mL | > 100 µg/mL | > 100 µg/mL | > 100 µg/mL | > 100 µg/mL | > 100 µg/mL | > 100 µg/mL | CC1(C)CCC[C@]2(C)[C@@H](C=O)C(C=O)=CC[C@@H]12 [POLYGODIAL] | 24.9% | 7.4% | – | – | 2.5 µg/mL (≈ 10.7 µM) | – | – |
